Read-outs that look alike come from different tables or passages of the source. Where a SMILES comes first, the peptide text is derived from it. Where no end group is shown, it is not given here. [ ]: non-standard residue; d: D form. Sar = CNCC(=O)O
Legend:
[1] = molecular target: T1, monomeric α-syn (Homo sapiens, UniProt P37840); test: SPR binding to immobilized α-syn monomers; conditions: Biacore T200, CM5 chip amine coupling, inhibitor 0.5–500 μM, 30 μl/min, PBS pH 7.4, 25°C, steady-state, 1:1 binding model, mean ± SD, performed thrice, read-out: dissociation constant Kd, α-syn monomer
T1 construct: prevent aggregation of full-length α-syn in vitro; made in house; host or cells: Escherichia coli BL21 (DE3) gold

[2] = molecular target: T2, α-syn fibrils (Homo sapiens, UniProt P37840); test: SPR binding to immobilized sonicated, filtered α-syn fibrils; conditions: steady-state, 1:1 binding model, read-out: equilibrium dissociation constant Kd, α-syn fibril
T2 construct: made in house; host or cells: Escherichia coli BL21 (DE3) gold
Description: Computational modeling predicted that our candidate peptidic inhibitors bind α-syn fibril seeds and prevent their growth and propagation. To obtain direct evidence of binding of our inhibitors to α-syn fibril seeds, we used surface plasmon resonance (SPR) (Figure 2A). For the SPR experiments, α-syn fibrils were immobilized on a CM5 sensor chip using standard amine coupling chemistry. For immobilization, mature α-syn fibrils were sonicated to form short fragments (Figure 2—figure supplement 1A) and then filtered through a 0.22-micron filter to remove large aggregates, retaining short fibrils (Figure 2—figure supplement 1A). We confirmed that short fibrils generated by sonication retain the ability to seed monomeric α-syn using an in vitro-seeded-aggregation assay. […] We then immobilized the sonicated and filtered α-syn fibrils on a CM5 SPR chip and measured affinities of our peptide inhibitors to the fibrils. […] The equilibrium dissociation constant (Kd) was calculated by steady-state analysis, fitting the data with 1:1 binding model (Figure 2B). […]
Figure 2. […] (B) The equilibrium dissociation constant (Kd) was calculated by fitting the plot of steady-state inhibitor binding levels (SPR signal at steady-state) against inhibitor concentration with 1:1 binding model. […]

[3] = ref Rodriguez et al., 2015; cited from earlier work
Description: Based on the atomic structure of NACore [68-GAVVTGVTAVA-78] as a template, we applied computational and structure-based approaches to design peptidic inhibitors. […] The inhibitors were designed using Rosetta-based computational modeling to bind to the tip of the steric-zipper protofilament, thereby capping the fibrils (Figure 1A). We identified four candidates; S37, S61, S62 and S71 that are computed to bind favo ...

Compound	Kd [1] [µM]	Kd ([2]; Biacore T200, CM5 chip amine coupling, inhibitor 0.5–500 μM, 30 μl/min, PBS pH 7.4, 25°C, mean ± SD, performed thrice) [µM]	aggregation rate relative to NACore [3]	Kd [2] [µM]
CC(C)[C@H](NC(=O)CN(C)C(=O)[C@@H](NC(=O)[C@@H](NC(=O)[C@@H](NC(=O)[C@H](C)NC(=O)[C@H](CCCNC(=N)N)NC(=O)[C@H](CCCNC(=N)N)NC(=O)[C@H](CCCNC(=N)N)NC(=O)[C@H](CCC(N)=O)NC(=O)[C@H](CCCNC(=N)N)NC(=O)[C@H](CCCNC(=N)N)NC(=O)[C@H](CCCCN)NC(=O)[C@H](CCCCN)NC(=O)[C@H](CCCNC(=N)N)NC(=O)CNC(=O)[C@@H](N)Cc1ccc(O)cc1)C(C)C)C(C)C)[C@@H](C)O)C(=O)N[C@H](C(=O)N[C@@H](C)C(=O)N[C@H](C(=O)N[C@@H](C)C(=O)N[C@@H](CCC(=O)O)C(=O)O)C(C)C)[C@@H](C)O [S71] (H-YGRKKRRQRRRAVVT[Sar]VTAVAE-OH)	116 ± 11.7	10.9 ± 0.11		
AVVTGVTAV [69-AVVTGVTAV-77, smaller 9-residue segment within NACore]			aggregates slower than NACore	
GAVVWGVTAVGRKKRRQRRRPQ [S61]	62.8 ± 11.7			9.28

— paper PMC6977966, “Inhibition of synucleinopathic seeding by rationally designed inhibitors” (eLife, 2020)
